The source of these data is US11085081B2, “Methods and materials for determining pain sensitivity and predicting and treating related disorders” (The University of North Carolina at Chapel Hill, priority 2004, dated 2021).

Test [1] relates to Sprague-Dawley rats. The test can be described thus: Mechanical and thermal pain behavior testing (von Frey monofilaments, radiant heat). It is filed as in vivo, rat. As to conditions: for blockade of OR486-induced hyperalgesia / heightened pain sensitivity: antagonist i.p. prior to OR486; for paw withdrawal latency to radiant heat after OR486, selective βAR antagonists: i.p. 10 min prior to OR486, ICI118,551 5.0 mg/kg; for paw withdrawal latency to radiant heat after OR486, selective βAR antagonists / paw withdrawal frequency to mechanical stimuli after OR486, selective βAR antagonists / paw withdrawal threshold to mechanical stimuli after OR486, selective βAR antagonists: SR59230A 5 or 50 mg/kg, betaxolol 0.1, 1.0, 10 mg/kg, relative to vehicle prior to OR486; for paw withdrawal frequency to mechanical stimuli after OR486, selective βAR antagonists / paw withdrawal threshold to mechanical stimuli after OR486, selective βAR antagonists: i.p. 10 min prior to OR486, ICI118,551 0.5 or 5.0 mg/kg; for paw withdrawal frequency to mechanical stimuli, antagonist in the absence of OR486 / paw withdrawal latency to radiant heat, antagonist in the absence of OR486 / paw withdrawal threshold to mechanical stimuli, antagonist in the absence of OR486: i.p. 10 min prior to vehicle, phentolamine 3, propranolol 3, SCH23390 0.2, spiperone 0.2, betaxolol 1.0, ICI118,551 0.5, SR59230A 5 mg/kg, relative to vehicle. The method, then:
Rats were placed in plexiglass cages positioned over an elevated perforated stainless steel platform and habituated to the environment for 15-25 min prior to testing. Paw withdrawal threshold to punctate mechanical stimulation was assessed using the up-down method of Chaplan et al. (1994). A series of nine calibrated filaments (with bending forces of 0.40, 0.68, 1.1, 2.1, 3.4, 5.7, 8.4, 13.2, and 25.0 g; Sammons Preston Rolyan, Bolingbrook, Ill., U.S.A.) with approximately equal logarithmic spacing between stimuli (Mean±SEM: 0.232±0.04 units) were presented to the hind paw in successive order, whether ascending or descending. Filaments were positioned in contact with the hind paw for a duration of 3 s or until a withdrawal response occurred. Testing was initiated with the middle hair of the series (3.4 g). In the absence of a paw withdrawal response, an incrementally stronger filament was presented and in the event of a paw withdrawal, an incrementally weaker filament was presented. After the initial response threshold was crossed, this procedure was repeated four times in order to obtain a total of six responses in the immediate vicinity of the threshold. The presence of paw withdrawal (X) and absence of withdrawal (O) was noted together with the terminal filament used in the series of six responses. The 50% g threshold=(10^[Xf+kδ])/10,000, where Xf=value (in log units) of the final von Frey hair used; k=tabular value of pattern of positive (X) and negative (O) responses, and δ=mean difference (in log units) between stimuli.
Immediately following determination of the response threshold, paw withdrawal frequency (%) to punctate mechanical stimulation was assessed. A von Frey monofilament with a calibrated bending force of 25 g was presented to the hind paw 10 times for a duration of 1 s with an interstimulus interval of approximately 1 s. Mechanical hyperalgesia was defined as an increase in the percentage frequency ([# of paw withdrawals/10]×100) of paw withdrawal evoked by stimulation with von Frey monofilaments.
Thermal hyperalgesia was evaluated using the radiant heat method of Hargreaves et al. (1988) in the same animals evaluated for responsiveness to von Frey monofilaments. Radiant heat was presented through the floor of a finely perforated stainless steel platform to the midplantar region of the hind paw.
After establishing stable baseline responsiveness to mechanical and thermal stimuli, separate groups of rats received intraperitoneal injections of OR486 (30 mg/kg i.p.; N=8) or vehicle (N=8) one hour prior to behavioral testing. Responsiveness to von Frey filaments was reassessed at 30 min intervals for 2 hours. Paw withdrawal latencies to radiant heat were subsequently assessed at 2.5 hours into the testing procedure. Twenty-four hours later, baseline responsiveness to mechanical and thermal stimuli was reestablished. Animals received OR486 (30 mg/kg i.p.) or vehicle (consistent with the previous day). Thirty minutes following administration of drug or vehicle, separate groups of rats received intraplantar carrageenan (N=4 per group) or saline (N=4 per group). Responsiveness to von Frey filaments was reassessed at 30 min intervals for 2 hours following the induction of inflammation. Paw withdrawal latencies to radiant heat were subsequently assessed at 2.5 hours post carrageenan.
Rats were handled and habituated to the testing environment 2-3 days prior to establishing baseline responsiveness. On test days, rats were placed in plexiglass cages positioned over an elevated perforated stainless steel platform and habituated to the environment for 15-20 minutes prior to testing. Paw withdrawal threshold to punctate mechanical stimulation was assessed using the up-down method of Chaplan (Chaplan et al. (1994)). […]

In test [2] the test system is TNFα, IL-1β, and IL-6. The test can be described thus: In vivo plasma cytokine measurement (ELISA). More on the design: species or system rat. The note with it: rats; ICI118,551 or SR59230A prior to OR486, low, middle and high dose pooled; relative to vehicle prior to OR486. The protocol:
Blood was centrifuged and plasma separated from red blood cells. Plasma IL-6 was measured in duplicate using enzyme-linked immunosorbant assay (ELISA) kits from R&D systems (Minneapolis, Minn., U.S.A.). Plasma TNFα and IL-1β were measured in duplicate by the University of North Carolina Proteomics Ilmmunotechnologies Core using ELISA kits from Biosource (Camarillo, Calif., U.S.A.) and the National Institute for Biological Standards and Control (UK), respectively.
(In general: ELISA stands for enzyme-linked immunosorbent assay.)

The test system of test [3] is 3T3-L1 adipocytes. The test can be described thus: In vitro cytokine measurement (real time PCR of transcripts) in adipocytes. It counts as cell-based, mouse. The protocol: Cell growth media consisted of Dulbecco's modified Eagle's medium supplemented with 10% heat-inactivated fetal bovine serum (Sigma, St. Louis, Mo., U.S.A.) and 1× penicillin-streptomycin (Gibco, Carlsbad, Calif., U.S.A.). Cells were maintained in a humidified atmosphere of 95% air and 5% CO2.
Two days after reaching confluence in growth media, adipogenesis was induced by incubating cells in growth media containing 0.25 μM dexamethasone (Sigma), 0.5 mM IBMX (Sigma), and 1 μM insulin (Sigma). After an additional 2 days in growth media containing 1 μM insulin, cells were grown for 6-8 days in normal growth media.
Total RNA was isolated using the RNeasy Mini Kit (Qiagen, Valencia, Calif., U.S.A.). RNA was then treated with 2 units of DNase I (Ambion, Austin, Tex., U.S.A.) at 37° C. for 30 min. Reverse transcription was performed according to the manufacturer's instructions. Briefly, the reverse transcription reaction mixture consisted of 1 μg DNase 1-treated RNA, 500 ng oligo-dT12-18, 10 mM dNTP, 40 units RNasin (Promega, Madison, Wis., U.S.A.), and 200 units of reverse transcriptase SUPERSCRIPT III™ (Invitrogen, Carlsbad, Calif., U.S.A.). cDNA synthesis was carried out at 50° C. for 1 hr followed by inactivation of reverse transcriptase at 70° C. for 15 min.
Mouse macrophages (RAW 264.7) and […] preadipocytes (3T3-L1) were obtained from the University of North Carolina Tissue Culture Facility. Cell maintenance and 3T3-L1 preadipocyte differentiation is described herein below. For pharmacological experiments, cells were seeded at a density of 5×10^5 cells/well in a 12-well plate (Corning). Total RNA was isolated and reverse transcribed as described in the supplementary materials. TNFα, IL-1β, and IL-6 transcripts were quantitated in quadruplicate by real time polymerase chain reaction using TAQMAN® Gene Expression Assays (Applied Biosystems, Foster City, Calif., U.S.A.) in an ABI PRISM 7000 Sequence Detection System. TNFα, IL-1β, and IL-6 transcript levels were normalized to Glyceraldehyde-3-phosphate dehydrogenase (GAPDH).
Background: Quantitative PCR measures a nucleic acid by following its amplification.

In test [4] the test system is Mouse macrophages (RAW 264.7). As to the kind of experiment: In vitro cytokine measurement (real time PCR of transcripts) in macrophages. It counts as cell-based. The protocol:
Cell growth media consisted of Dulbecco's modified Eagle's medium supplemented with 10% heat-inactivated fetal bovine serum (Sigma, St. Louis, Mo., U.S.A.) and 1× penicillin-streptomycin (Gibco, Carlsbad, Calif., U.S.A.). Cells were maintained in a humidified atmosphere of 95% air and 5% CO2. Total RNA was isolated using the RNeasy Mini Kit (Qiagen, Valencia, Calif., U.S.A.). RNA was then treated with 2 units of DNase I (Ambion, Austin, Tex., U.S.A.) at 37° C. for 30 min. Reverse transcription was performed according to the manufacturer's instructions. Briefly, the reverse transcription reaction mixture consisted of 1 μg DNase 1-treated RNA, 500 ng oligo-[…], 10 mM dNTP, 40 units RNasin (Promega, Madison, Wis., U.S.A.), and 200 units of reverse transcriptase SUPERSCRIPT IIITM (Invitrogen, Carlsbad, Calif., U.S.A.). cDNA synthesis was carried out at 50° C. for 1 hr followed by inactivation of reverse transcriptase at 70° C. for 15 min. […] Cell maintenance and 3T3-L1 preadipocyte differentiation is described herein below. For pharmacological experiments, cells were seeded at a density of 5×10^5 cells/well in a 12-well plate (Corning). Total RNA was isolated and reverse transcribed as described in the supplementary materials. […] TNFα, IL-1β, and IL-6 transcript levels were normalized to Glyceraldehyde-3-phosphate dehydrogenase (GAPDH).

Where [5] appears, read: pretreatment 30 min: betaxolol 0.3 μM, ICI118,551 0.3 μM, SR59230A 0.1 μM, then salmeterol 0.5 μM 1 hr.
The mark [6] stands for this setting: salmeterol 0.5 μM, 1 hr treatment, normalized to GAPDH.

On to `Cc1ccc(OCC(O)C(C)NC(C)C)c2c1CCC2` (single isomer, unassigned; (-)) [ICI118,551, (−)-1-(2,3-[dihydro-7-methyl-1H-inden-4-yl]oxy)-3-([1-methylethyl]-amino)-2-butanol], for which, in test [1], the “blockade of OR486-induced hyperalgesia / heightened pain sensitivity” value was “partially blocked”; the “paw withdrawal latency to radiant heat after OR486, selective βAR antagonists” value was “increased paw withdrawal latency”; the “paw withdrawal frequency to mechanical stimuli after OR486, selective βAR antagonists” value was “decreased paw withdrawal frequency”; the “paw withdrawal threshold to mechanical stimuli after OR486, selective βAR antagonists” value is “increased paw withdrawal threshold”. In test [1], the “paw withdrawal frequency to mechanical stimuli, antagonist in the absence of OR486” value is listed as “failed to affect”; the “paw withdrawal latency to radiant heat, antagonist in the absence of OR486” value is recorded as “failed to affect”; the “paw withdrawal threshold to mechanical stimuli, antagonist in the absence of OR486” value was “failed to affect”. Also, in test [2], the “levels of IL-1β after OR486, selective β2 or β3 antagonist” value is reported as “decreased levels”; the “levels of IL-6 after OR486, selective β2 or β3 antagonist” value was “decreased levels”; the “levels of TNFα after OR486, selective β2 or β3 antagonist” value is given as “decreased levels”. The “blockade of salmeterol-induced increase in adipocyte TNFα and IL-6 transcript levels” value in test [3] (setting [5]) is on record as “completely blocked”. For the same compound, the “blockade of salmeterol-induced increase in macrophage IL-1β and IL-6 transcript levels” value in test [4] (setting [5]) is reported as “completely blocked”.
For the compound `CCc1ccccc1OC[C@@H](O)CN[C@H]1CCCc2ccccc21` [SR59230A, (1-(2-ethylphenoxy)-3-[[(1S)-1,2,3,4-tetrahydro-1-naphthalenyl]amino]-(2S)-2-propanol)], in test [1], the “blockade of OR486-induced hyperalgesia / heightened pain sensitivity” value was “partially blocked”; the “paw withdrawal latency to radiant heat after OR486, selective βAR antagonists” value is on record as “increased paw withdrawal latency”; the “paw withdrawal frequency to mechanical stimuli after OR486, selective βAR antagonists” value is listed as “decreased paw withdrawal frequency”; the “paw withdrawal threshold to mechanical stimuli after OR486, selective βAR antagonists” value is “increased paw withdrawal threshold”. Moreover, in test [1], the “paw withdrawal frequency to mechanical stimuli, antagonist in the absence of OR486” value is on record as “failed to affect”; the “paw withdrawal latency to radiant heat, antagonist in the absence of OR486” value is given as “failed to affect”; the “paw withdrawal threshold to mechanical stimuli, antagonist in the absence of OR486” value is given as “failed to affect”. In test [2], the “levels of IL-1β after OR486, selective β2 or β3 antagonist” value is recorded as “decreased levels”; the “levels of IL-6 after OR486, selective β2 or β3 antagonist” value is “decreased levels”; the “levels of TNFα after OR486, selective β2 or β3 antagonist” value is given as “decreased levels”. Also, the “blockade of CL316243-induced increase in adipocyte IL-6 transcript levels” value in test [3] (pretreatment 30 min: betaxolol 0.3 μM, ICI118,551 0.3 μM, SR59230A 0.1 μM, then CL316243 0.3 μM 1 hr) is recorded as “completely blocked”.
`OCc1cc(C(O)CNCCCCCCOCCCCc2ccccc2)ccc1O` (stereo not drawn) [salmeterol]: in test [3] (salmeterol 0.5 μM or CL316243 0.3 μM, 1 hr treatment, normalized to GAPDH), the “increase in IL-6 mRNA levels in adipocytes” value was determined as 8 fold. In addition, in test [3] (setting [6]), the “increase in TNFα mRNA levels in adipocytes” value amounted to 6 fold. Besides, in test [4] (setting [6]), the “increase in IL-1β mRNA levels in macrophages” value worked out at 38 fold and the “increase in IL-6 mRNA levels in macrophages” value was found to be 6.5 fold.
